Patent US20190030018A1 (Celgene Corporation, priority 2017, published 2019)

System: 563 solid tumor cell lines
Assay: Luminex assay in PRISM, 5 days treatment (AUC)
Assay type: cell-based
Set-up: AUC: scale not given here
Description: The AUC values provided in Table 80 below were calculated based on the Median Fluorescent Intensity values, the primary read out of the Luminex assay in PRISM. The following parameters were used in this assay: • 8 point dose was used in triplicate • max concentration of 10 μM was used with serial 4-fold dilutions (low of […]) • 563 adherent cell lines in 23 pools. • treatment duration was 5 days.

## O=C1CCC(N2Cc3cc(CNC(=O)C(F)(F)c4ccc(Cl)cc4)ccc3C2=O)C(=O)N1 (centres unmarked) [Compound 1, 2-(4-chlorophenyl)-N-((2-(2,6-dioxopiperidin-3-yl)-1-oxoisoindolin-5-yl)methyl)-2,2-difluoroacetamide]
8 point dose, max 10 μM, 5 days
  activity on solid tumor cell lines (AUC): highest activity on lung, intestine, stomach, liver, pancreatic and kidney cell lines
A101D_SKIN
  AUC: 0.821
A172_CENTRAL_NERVOUS_SYSTEM
  AUC: 0.314
A204_SOFT_TISSUE
  AUC: 0.156
A253_SALIVARY_GLAND
  AUC: 0.864
A375_SKIN
  AUC: 0.795
A498_KIDNEY
  AUC: 0.845
A549_LUNG
  AUC: 0.857
A673_BONE
  AUC: 0.885
A704_KIDNEY
  AUC: 0.823
A2058_SKIN
  AUC: 0.818
A2780_OVARY
  AUC: 0.485
ABC1_LUNG
  AUC: 0.591
ACCMESO1_PLEURA
  AUC: 0.631
ACHN_KIDNEY
  AUC: 0.912
AGS_STOMACH
  AUC: 0.865
AM38_CENTRAL_NERVOUS_SYSTEM
  AUC: 0.543
AN3CA_ENDOMETRIUM
  AUC: 0.861
BCPAP_THYROID
  AUC: 0.782
BECKER_CENTRAL_NERVOUS_SYSTEM
  AUC: 0.874
BEN_LUNG
  AUC: 0.826
BFTC909_KIDNEY
  AUC: 0.843
BHT101_THYROID
  AUC: 0.858
BHY_UPPER_AERODIGESTIVE_TRACT
  AUC: 0.405
BICR6_UPPER_AERODIGESTIVE_TRACT
  AUC: 0.801
BICR16_UPPER_AERODIGESTIVE_TRACT
  AUC: 0.585
BICR18_UPPER_AERODIGESTIVE_TRACT
  AUC: 0.845
BICR56_UPPER_AERODIGESTIVE_TRACT
  AUC: 0.984
BT474_BREAST
  AUC: 0.801
BT549_BREAST
  AUC: 0.242
BXPC3_PANCREAS
  AUC: 0.916
C32_SKIN
  AUC: 0.881
CADOES1_BONE
  AUC: 0.566
CAKI2_KIDNEY
  AUC: 0.867
CAL12T_LUNG
  AUC: 0.366
CAL27_UPPER_AERODIGESTIVE_TRACT
  AUC: 0.812
CAL29_URINARY_TRACT
  AUC: 0.831
CAL51_BREAST
  AUC: 0.589
CAL54_KIDNEY
  AUC: 0.679
CAL62_THYROID
  AUC: 0.083
CAL78_BONE
  AUC: 0.798
CAL120_BREAST
  AUC: 0.812
CALU6_LUNG
  AUC: 0.794
CAMA1_BREAST
  AUC: 0.589
CAPAN2_PANCREAS
  AUC: 0.835
CBAGPN_BONE
  AUC: 0.236
CCK81_LARGE_INTESTINE
  AUC: 0.021
CFPAC1_PANCREAS
  AUC: 0.872
CHL1_SKIN
  AUC: 0.330
CHLA10_BONE
  AUC: 0.933
CJM_SKIN
  AUC: 0.215
CL11_LARGE_INTESTINE
  AUC: 0.849
CL34_LARGE_INTESTINE
  AUC: 0.604
COLO678_LARGE_INTESTINE
  AUC: 0.811
COLO679_SKIN
  AUC: 0.830
COLO680N_OESOPHAGUS
  AUC: 0.863
COLO741_SKIN
  AUC: 0.411
COLO792_SKIN
  AUC: 0.629
COLO800_SKIN
  AUC: 0.810
COLO829_SKIN
  AUC: 0.748
CORL23_LUNG
  AUC: 0.879
CORL105_LUNG
  AUC: 0.824
COV318_OVARY
  AUC: 0.883
COV362_OVARY
  AUC: 0.824
COV644_OVARY
  AUC: 0.994
DANG_PANCREAS
  AUC: 0.793
DAOY_CENTRAL_NERVOUS_SYSTEM
  AUC: 0.928
DBTRG05MG_CENTRAL_NERVOUS_SYSTEM
  AUC: 0.795
DETROIT562_UPPER_AERODIGESTIVE_TRACT
  AUC: 0.855
DMS53_LUNG
  AUC: 0.903
DMS273_LUNG
  AUC: 0.771
DU145_PROSTATE
  AUC: 0.878
DV90_LUNG
  AUC: 0.174
EBC1_LUNG
  AUC: 0.960
ECGI10_OESOPHAGUS
  AUC: 0.877
EFE184_ENDOMETRIUM
  AUC: 0.679
EFM19_BREAST
  AUC: 0.917
EFM192A_BREAST
  AUC: 0.766
EFO21_OVARY
  AUC: 0.843
EFO27_OVARY
  AUC: 0.534
EKVX_LUNG
  AUC: 0.837
EN_ENDOMETRIUM
  AUC: 0.831
ES2_OVARY
  AUC: 0.801
ESS1_ENDOMETRIUM
  AUC: 0.512
EW8_BONE
  AUC: 0.985
EWS502_BONE
  AUC: 0.875
FADU_UPPER_AERODIGESTIVE_TRACT
  AUC: 0.859
FTC133_THYROID
  AUC: 0.833
FTC238_THYROID
  AUC: 0.8424
G292CLONEA141B1_BONE
  AUC: 0.2746
G402_SOFT_TISSUE
  AUC: 0.8297
GAMG_CENTRAL_NERVOUS_SYSTEM
  AUC: 0.365
GB1_CENTRAL_NERVOUS_SYSTEM
  AUC: 0.8359
GCIY_STOMACH
  AUC: 0.8662
GI1_CENTRAL_NERVOUS_SYSTEM
  AUC: 0.5874
GMS10_CENTRAL_NERVOUS_SYSTEM
  AUC: 0.4048
GOS3_CENTRAL_NERVOUS_SYSTEM
  AUC: 0.5047
GP2D_LARGE_INTESTINE
  AUC: 0.796
HARA_LUNG
  AUC: 0.7964
HCC15_LUNG
  AUC: 0.9583
HCC38_BREAST
  AUC: 0.4873
HCC44_LUNG
  AUC: 0.906
HCC56_LARGE_INTESTINE
  AUC: 0.849
HCC78_LUNG
  AUC: 0.793
HCC366_LUNG
  AUC: 0.3183
HCC827_LUNG
  AUC: 0.516
HCC1143_BREAST
  AUC: 0.8133
HCC1195_LUNG
  AUC: 0.9004
HCC1359_LUNG
  AUC: 0.875
HCC1395_BREAST
  AUC: 0.9508
HCC1419_BREAST
  AUC: 0.8487
HCC1428_BREAST
  AUC: 0.9167
HCC1438_LUNG
  AUC: 0.9701
HCC1806_BREAST
  AUC: 0.8775
HCC1937_BREAST
  AUC: 0.579
HCC1954_BREAST
  AUC: 0.8107
HCC4006_LUNG
  AUC: 0.8403
HCT15_LARGE_INTESTINE
  AUC: 0.554
HCT116_LARGE_INTESTINE
  AUC: 0.826
HDQP1_BREAST
  AUC: 0.825
HEC1A_ENDOMETRIUM
  AUC: 0.832
HEC6_ENDOMETRIUM
  AUC: 0.858
HEC59_ENDOMETRIUM
  AUC: 0.794
HEC108_ENDOMETRIUM
  AUC: 0.812
HEC151_ENDOMETRIUM
  AUC: 0.903
HEC251_ENDOMETRIUM
  AUC: 0.698
HEC265_ENDOMETRIUM
  AUC: 0.831
HEP3B217_LIVER
  AUC: 0.596
HEPG2_LIVER
  AUC: 0.511
HGC27_STOMACH
  AUC: 0.846
HLF_LIVER
  AUC: 0.952
HMC18_BREAST
  AUC: 0.847
HOS_BONE
  AUC: 0.854
HS294T_SKIN
  AUC: 0.883
HS729_SOFT_TISSUE
  AUC: 0.598
HS746T_STOMACH
  AUC: 0.428
HS766T_PANCREAS
  AUC: 0.830
HS852T_SKIN
  AUC: 0.710
HS939T_SKIN
  AUC: 0.836
HS944T_SKIN
  AUC: 0.719
HSC2_UPPER_AERODIGESTIVE_TRACT
  AUC: 0.597
HSC3_UPPER_AERODIGESTIVE_TRACT
  AUC: 0.834
HT29_LARGE_INTESTINE
  AUC: 0.546
HT55_LARGE_INTESTINE
  AUC: 0.571
HT144_SKIN
  AUC: 0.641
HT1376_URINARY_TRACT
  AUC: 0.900
HUCCT1_BILIARY_TRACT
  AUC: 0.533
HUH1_LIVER
  AUC: 0.508
HUH6_LIVER
  AUC: 0.867
HUH28_BILIARY_TRACT
  AUC: 0.267
HUPT3_PANCREAS
  AUC: 0.876
HUPT4_PANCREAS
  AUC: 0.5948
IALM_LUNG
  AUC: 0.2481
IGR37_SKIN
  AUC: 0.8495
IGROV1_OVARY
  AUC: 0.6978
IM95_STOMACH
  AUC: 0.111
IPC298_SKIN
  AUC: 0.894
ISHIKAWAHERAKLIO02ER_ENDOMETRIUM
  AUC: 0.8402
ISTMES1_PLEURA
  AUC: 0.1381
ISTMES2_PLEURA
  AUC: 0.8192
J82_URINARY_TRACT
  AUC: 0.8263
JHH1_LIVER
  AUC: 0.469
JHH4_LIVER
  AUC: 0.680
JHH5_LIVER
  AUC: 0.806
JHH6_LIVER
  AUC: 0.449
JHH7_LIVER
  AUC: 0.778
JHOC5_OVARY
  AUC: 0.865
JHOM1_OVARY
  AUC: 0.833
JHOS2_OVARY
  AUC: 0.566
JHUEM2_ENDOMETRIUM
  AUC: 0.761
JIMT1_BREAST
  AUC: 0.816
JL1_PLEURA
  AUC: 0.591
JMSU1_URINARY_TRACT
  AUC: 0.842
K029AX_SKIN
  AUC: 0.834
KALS1_CENTRAL_NERVOUS_SYSTEM
  AUC: 0.838
KE39_STOMACH
  AUC: 0.521
KELLY_AUTONOMIC_GANGLIA
  AUC: 0.591
KMBC2_URINARY_TRACT
  AUC: 0.913
KMRC1_KIDNEY
  AUC: 0.842
KMRC3_KIDNEY
  AUC: 0.990
KMRC20_KIDNEY
  AUC: 0.951
KNS42_CENTRAL_NERVOUS_SYSTEM
  AUC: 0.826
KNS60_CENTRAL_NERVOUS_SYSTEM
  AUC: 0.795
KNS62_LUNG
  AUC: 0.842
KNS81_CENTRAL_NERVOUS_SYSTEM
  AUC: 0.808
KP2_PANCREAS
  AUC: 0.767
KP3_PANCREAS
  AUC: 0.592
KP4_PANCREAS
  AUC: 0.447
KPL1_BREAST
  AUC: 0.890
KPNYN_AUTONOMIC_GANGLIA
  AUC: 0.648
KU1919_URINARY_TRACT
  AUC: 0.926
KURAMOCHI_OVARY
  AUC: 0.857
KYSE70_OESOPHAGUS
  AUC: 0.788
KYSE140_OESOPHAGUS
  AUC: 0.883
KYSE150_OESOPHAGUS
  AUC: 0.863
KYSE180_OESOPHAGUS
  AUC: 0.865
KYSE270_OESOPHAGUS
  AUC: 0.835
KYSE510_OESOPHAGUS
  AUC: 0.870
KYSE520_OESOPHAGUS
  AUC: 0.887
LC1SQSF_LUNG
  AUC: 0.936
LI7_LIVER
  AUC: 0.811
LK2_LUNG
  AUC: 0.768
LN229_CENTRAL_NERVOUS_SYSTEM
  AUC: 0.758
LNCAPCLONEFGC_PROSTATE
  AUC: 0.672
LOXIMVI_SKIN
  AUC: 0.905
LS180_LARGE_INTESTINE
  AUC: 0.142
LS411N_LARGE_INTESTINE
  AUC: 0.811
LS513_LARGE_INTESTINE
  AUC: 0.235
LS1034_LARGE_INTESTINE
  AUC: 0.223
LU99_LUNG
  AUC: 0.421
LXF289_LUNG
  AUC: 0.858
MALME3M_SKIN
  AUC: 0.180
MCAS_OVARY
  AUC: 0.845
MCF7_BREAST
  AUC: 0.831
MDAMB175VII_BREAST
  AUC: 0.524
MDAMB231_BREAST
  AUC: 0.278
MDAMB435S_SKIN
  AUC: 0.845
MELHO_SKIN
  AUC: 0.907
MELJUSO_SKIN
  AUC: 0.845
MEWO_SKIN
  AUC: 0.267
MFE280_ENDOMETRIUM
  AUC: 0.881
MFE296_ENDOMETRIUM
  AUC: 0.824
MFE319_ENDOMETRIUM
  AUC: 0.751
MG63_BONE
  AUC: 0.968
MHHES1_BONE
  AUC: 0.984
MIAPACA2_PANCREAS
  AUC: 0.866
MKN1_STOMACH
  AUC: 0.871
MKN7_STOMACH
  AUC: 0.841
MKN45_STOMACH
  AUC: 0.338
MKN74_STOMACH
  AUC: 0.883
